The record followed here is patent US8623899B2, “Bis-benzimidazole derivatives as hepatitis C virus inhibitors” (Janssen Research & Development Ireland, priority 2009, dated 2014).

This assay relates to HCV type 1b replicon in Huh-7 luc/neo (Huh-Luc) cells. Nature of the assay: HCV replicon assay (Huh-Luc, luciferase readout). The assay is classed as cell-based. The following applies: Hepatitis C virus, Huh-7, 72 h, luciferase activity, incubation of three days, read-out: HCV-REP-HUH7LUC_EC50. The source says:
The compounds of formula (I) were examined for inhibitory activity in the HCV replicon. This cellular assay is based on a bicistronic expression construct, as described by Lohmann et al. (1999) Science vol. 285 pp. 110-113 with modifications described by Krieger et al. (2001) Journal of Virology 75: 4614-4624, in a multi-target screening strategy.
In essence, the method was as follows:
The assay utilized the stably transfected cell line Huh-7 luc/neo (hereafter referred to as Huh-Luc). This cell line harbors an RNA encoding a bicistronic expression construct comprising the wild type NS3-NS5B regions of HCV type 1b translated from an Internal Ribosome Entry Site (IRES) from encephalomyocarditis virus (EMCV), preceded by a reporter portion (FfL-luciferase), and a selectable marker portion (neo^R, neomycine phosphotransferase). The construct is flanked by 5′ and 3′ NTRs (non-translated regions) from HCV type 1b. Continued culture of the replicon cells in the presence of G418 (neo^R) is dependent on the replication of the HCV RNA. The stably transfected replicon cells that express HCV RNA, which replicates autonomously and to high levels, encoding inter alia luciferase, were used for screening the antiviral compounds.
The replicon cells were plated in 384 well plates in the presence of the test and control compounds which were added in various concentrations. Following an incubation of three days, HCV replication was measured by assaying luciferase activity (using standard luciferase assay substrates and reagents and a Perkin Elmer ViewLux™ ultraHTS microplate imager). Replicon cells in the control cultures have high luciferase expression in the absence of any inhibitor. The inhibitory activity of the compound on luciferase activity was monitored on the Huh-Luc cells, enabling a dose-response curve for each test compound. EC50 values were then calculated, which represent the amount of compound required to decrease the level of detected luciferase activity by 50%, or more specifically, to reduce the ability of the genetically linked HCV replicon RNA to replicate.

pEC50: −log10 of the molar value.

As to `O=C(c1ccc(F)cc1)N1CCC[C@H]1c1nc2ccc(-c3ccc(-c4ccc5nc([C@@H]6CCCN6C(=O)c6ccc(F)cc6)[nH]c5c4)cc3)cc2[nH]1` [Compound 27], the pEC50 is 6.62. With `CC(C)[C@@H](C(=O)N1CCC[C@H]1c1nc2ccc(-c3ccc(-c4ccc5nc([C@@H]6CCCN6C(=O)[C@H](C(C)C)N(C)C)[nH]c5c4)cc3)cc2[nH]1)N(C)C` [Compound 28], the pEC50 is 7.15.

`O=C(CC1CCCCC1)N1CCC[C@H]1c1nc2ccc(-c3ccc(-c4ccc5nc([C@@H]6CCCN6C(=O)CC6CCCCC6)[nH]c5c4)cc3)cc2[nH]1` [Compound 29]: the pEC50 is 6.26. For the molecule `COC(=O)N[C@H](C(=O)N1CCC[C@H]1c1nc2ccc(-c3ccc(-c4ccc5nc([C@@H]6CCCN6C(=O)[C@@H](NC(=O)OC)C(C)C)[nH]c5c4)cc3)cc2[nH]1)C(C)C` [Compound 30], the pEC50 is 11.22.

As to `O=C(c1cccnc1)N1CCC[C@H]1c1nc2ccc(-c3ccc(-c4ccc5nc([C@@H]6CCCN6C(=O)c6cccnc6)[nH]c5c4)cc3)cc2[nH]1` [Compound 31], the pEC50 was 6.55. Take `COC(=O)N[C@@H](C(=O)N1CCC[C@H]1c1nc2ccc(-c3ccc(-c4ccc5nc([C@@H]6CCCN6C(=O)[C@H](NC(=O)OC)C(C)C)[nH]c5c4)cc3)cc2[nH]1)C(C)C` [Compound 32]: the pEC50 was 8.16. The result for `CC(C)[C@H](O)C(=O)N1CCC[C@H]1c1nc2ccc(-c3ccc(-c4ccc5nc([C@@H]6CCCN6C(=O)[C@@H](O)C(C)C)[nH]c5c4)cc3)cc2[nH]1` [Compound 33] reads 6.96; that for `O=C([C@H](O)c1ccccc1)N1CCC[C@H]1c1nc2ccc(-c3ccc(-c4ccc5nc([C@@H]6CCCN6C(=O)[C@H](O)c6ccccc6)[nH]c5c4)cc3)cc2[nH]1` [Compound 34], 11.43; that for `CN(C)[C@@H](C(=O)N1CCC[C@H]1c1nc2ccc(-c3ccc(-c4ccc5nc([C@@H]6CCCN6C(=O)[C@@H](c6ccccc6)N(C)C)[nH]c5c4)cc3)cc2[nH]1)c1ccccc1` [Compound 36], 10.14. For `COC(=O)N[C@H](C(=O)N1CCC[C@H]1c1nc2ccc(-c3ccc(-c4ccc5nc([C@@H]6CCCN6C(=O)[C@@H](NC(=O)OC)C(C)(C)C)[nH]c5c4)cc3)cc2[nH]1)C(C)(C)C` [Compound 37] the value was 11.00. For `CC(C)(C)OC(=O)N[C@@H](C(=O)N1CCC[C@H]1c1nc2ccc(-c3ccc(-c4ccc5nc([C@@H]6CCCN6C(=O)[C@H](NC(=O)OC(C)(C)C)c6ccccc6)[nH]c5c4)cc3)cc2[nH]1)c1ccccc1` [Compound 38] the value was 10.85; for `COC(=O)N[C@@H](C(=O)N1CCCC1c1nc2ccc(-c3ccc(-c4ccc5nc([C@@H]6CCCN6C(=O)[C@H](NC(=O)OC)c6ccccc6)[nH]c5c4)cc3)cc2[nH]1)c1ccccc1` (stereo partly drawn) [Compound 39], 11.17. For `COC(=O)N[C@H](C(=O)N1CCC[C@H]1c1nc2cc(-c3ccc(-c4ccc5nc([C@@H]6CCCN6C(=O)[C@@H](NC(=O)OC)C6CC6)[nH]c5c4)cc3)ccc2[nH]1)C1CC1` [Compound 40], the pEC50 is 10.85. The result for `CCOC(=O)N[C@H](C(=O)N1CCC[C@H]1c1nc2ccc(-c3ccc(-c4ccc5nc([C@@H]6CCCN6C(=O)[C@@H](NC(=O)OCC)C(C)C)[nH]c5c4)cc3)cc2[nH]1)C(C)C` [Compound 41] reads 7.77.

Turning to `CCN(C1CC1)[C@@H](C(=O)N1CCC[C@H]1c1nc2ccc(-c3ccc(-c4ccc5nc([C@@H]6CCCN6C(=O)[C@@H](c6ccccc6)N(CC)C6CC6)[nH]c5c4)cc3)cc2[nH]1)c1ccccc1` [Compound 42], the pEC50 is 10.20. Regarding `O=C([C@@H](c1ccccc1)N1CCCC1)N1CCC[C@H]1c1nc2ccc(-c3ccc(-c4ccc5nc([C@@H]6CCCN6C(=O)[C@@H](c6ccccc6)N6CCCC6)[nH]c5c4)cc3)cc2[nH]1` [Compound 45], the pEC50 was 10.29. For `O=C([C@@H](c1ccccc1)N1CCOCC1)N1CCC[C@H]1c1nc2ccc(-c3ccc(-c4ccc5nc([C@@H]6CCCN6C(=O)[C@@H](c6ccccc6)N6CCOCC6)[nH]c5c4)cc3)cc2[nH]1` [Compound 46] the value was 10.66; for `O=C([C@H](O)c1ccccc1Cl)N1CCC[C@H]1c1nc2ccc(-c3ccc(-c4ccc5nc([C@@H]6CCCN6C(=O)[C@H](O)c6ccccc6Cl)[nH]c5c4)cc3)cc2[nH]1` [Compound 48], 10.96. Take `O=C([C@H](O)c1cccc(Cl)c1)N1CCC[C@H]1c1nc2ccc(-c3ccc(-c4ccc5nc([C@@H]6CCCN6C(=O)[C@H](O)c6cccc(Cl)c6)[nH]c5c4)cc3)cc2[nH]1` [Compound 49]: the pEC50 was 10.57.

For `COCC[C@H](NC(=O)OC)C(=O)N1CCC[C@H]1c1nc2ccc(-c3ccc(-c4ccc5nc([C@@H]6CCCN6C(=O)[C@H](CCOC)NC(=O)OC)[nH]c5c4)cc3)cc2[nH]1` [Compound 51], the pEC50 was 10.92. For `CC(C)OC(=O)N[C@H](C(=O)N1CCC[C@H]1c1nc2ccc(-c3ccc(-c4ccc5nc([C@@H]6CCCN6C(=O)[C@@H](NC(=O)OC(C)C)C(C)C)[nH]c5c4)cc3)cc2[nH]1)C(C)C` [Compound 52] the value was < 7.01; for `CCC(=O)N[C@H](C(=O)N1CCC[C@H]1c1nc2ccc(-c3ccc(-c4ccc5nc([C@@H]6CCCN6C(=O)[C@@H](NC(=O)CC)C(C)C)[nH]c5c4)cc3)cc2[nH]1)C(C)C` [Compound 53], 8.40. For `CC(C)[C@@H](C(=O)N1CCC[C@H]1c1nc2ccc(-c3ccc(-c4ccc5nc([C@@H]6CCCN6C(=O)[C@H](C(C)C)N6CCCNC6=O)[nH]c5c4)cc3)cc2[nH]1)N1CCCNC1=O` [Compound 54] the value was 10.19; for `COC(=O)N[C@@H](CC(C)C)C(=O)N1CCC[C@H]1c1nc2ccc(-c3ccc(-c4ccc5nc([C@@H]6CCCN6C(=O)[C@H](CC(C)C)NC(=O)OC)[nH]c5c4)cc3)cc2[nH]1` [Compound 56], 10.92.
